SMILES strings stand for the structures.

Among the data in patent publication US20260176265A1 (Cancer Research Technology Limited, priority 2022, published 2026) are IC50 values, retold here.

Test [1] has as its target CtermHisTag-mEGFR Triple Mutant - C797S, L858R, T790M (Homo sapiens, UniProt P00533, C797S/L858R/T790M). Description: TR-FRET probe displacement assay, EGFR triple mutant. It is filed as binding. The note with it: T790M 1.25 nM, probe 100 nM, 30 mins room temperature. As for the experimental part: (§1) Compounds (dissolved to 100 mM in DMSO) were dispensed into black low volume 384 well assay plates (Corning) over a final concentration range of 100000, 30000, 10000, 3000, 1000, 300, 100, 30, 10, and 3 nM using an Echo 550 (Labcyte). Positive control compound and DMSO as a negative control were dispensed into the first and last well, respectively. […]. Plates were read using a PheraStar FS (BMG Labtech) at Ex337 nm Ex490/520 nm. The data were analysed using Graphpad Prism/Dotmatics Studies Software. Assays conducted in technical replicate and repeated as a biological duplicate.

Test [2] has as its target CtermHisTag-mEGFR Wild type (Homo sapiens, UniProt P00533). Description: TR-FRET probe displacement assay, EGFR wild type. It is filed as binding. The note with it: EGFR wild type 1.25 nM, probe 100 nM, 30 mins room temperature. How it is done: as §1
Test [3] concerns the target T1, Phospho-EGFR (Tyr1068) in H1975 cells (Homo sapiens, UniProt P00533, L858R/T790M).
T1 construct: host or cells: H1975
Description: HTRF pEGFR/total EGFR assay in H1975 cells. The note with it: compound 3 hours, ratio pEGFR/total EGFR. The format is cell-based. How it is done: H1975 cells (ATCC CRL-5908) were plated at 20,000 cells per well in 96 well plates and placed at 37° C. 5% CO2. Once adhered (after 24h) cells were treated with compounds dissolved in DMSO at a final concentration of 0.1% DMSO in media. Compounds were diluted in media then added to cells for 3 hours in duplicate. Compound and media were removed from the cells, then 50ul of HTRF lysis buffer is added (lysis buffer was diluted from 4× stock to 1× in DI water, with 1% blocking agent also added). Cells were lysed on a plate shaker (2000 rpm) for 30 minutes at room temperature. pEGFR expression was monitored using the Cisbio Phospho-EGFR (Tyri068) cellular kit (64EG1 PEH). Total EGFR expression was monitored using the Cisbio Total EGFR cellular kit (64NG1 PEH) as per manufacturer's instructions. Fluorescence emission was read at two different wavelengths (665 nm and 620 nm) on a PheraStar. Results were calculated as ratio of pEGFR/total EGFR and then percentage of 0 uM control.

The target of test [4] is T2, Phospho-EGFR (Tyr1068) in H1975 C797S cells (Homo sapiens, UniProt P00533, C797S/L858R/T790M).
T2 construct: endogenous in cells; host or cells: H1975 C797S (CRISPR-edited in house from ATCC CRL-5908)
T2 sequence (P00533 25-1210 T790M/C797S/L858R): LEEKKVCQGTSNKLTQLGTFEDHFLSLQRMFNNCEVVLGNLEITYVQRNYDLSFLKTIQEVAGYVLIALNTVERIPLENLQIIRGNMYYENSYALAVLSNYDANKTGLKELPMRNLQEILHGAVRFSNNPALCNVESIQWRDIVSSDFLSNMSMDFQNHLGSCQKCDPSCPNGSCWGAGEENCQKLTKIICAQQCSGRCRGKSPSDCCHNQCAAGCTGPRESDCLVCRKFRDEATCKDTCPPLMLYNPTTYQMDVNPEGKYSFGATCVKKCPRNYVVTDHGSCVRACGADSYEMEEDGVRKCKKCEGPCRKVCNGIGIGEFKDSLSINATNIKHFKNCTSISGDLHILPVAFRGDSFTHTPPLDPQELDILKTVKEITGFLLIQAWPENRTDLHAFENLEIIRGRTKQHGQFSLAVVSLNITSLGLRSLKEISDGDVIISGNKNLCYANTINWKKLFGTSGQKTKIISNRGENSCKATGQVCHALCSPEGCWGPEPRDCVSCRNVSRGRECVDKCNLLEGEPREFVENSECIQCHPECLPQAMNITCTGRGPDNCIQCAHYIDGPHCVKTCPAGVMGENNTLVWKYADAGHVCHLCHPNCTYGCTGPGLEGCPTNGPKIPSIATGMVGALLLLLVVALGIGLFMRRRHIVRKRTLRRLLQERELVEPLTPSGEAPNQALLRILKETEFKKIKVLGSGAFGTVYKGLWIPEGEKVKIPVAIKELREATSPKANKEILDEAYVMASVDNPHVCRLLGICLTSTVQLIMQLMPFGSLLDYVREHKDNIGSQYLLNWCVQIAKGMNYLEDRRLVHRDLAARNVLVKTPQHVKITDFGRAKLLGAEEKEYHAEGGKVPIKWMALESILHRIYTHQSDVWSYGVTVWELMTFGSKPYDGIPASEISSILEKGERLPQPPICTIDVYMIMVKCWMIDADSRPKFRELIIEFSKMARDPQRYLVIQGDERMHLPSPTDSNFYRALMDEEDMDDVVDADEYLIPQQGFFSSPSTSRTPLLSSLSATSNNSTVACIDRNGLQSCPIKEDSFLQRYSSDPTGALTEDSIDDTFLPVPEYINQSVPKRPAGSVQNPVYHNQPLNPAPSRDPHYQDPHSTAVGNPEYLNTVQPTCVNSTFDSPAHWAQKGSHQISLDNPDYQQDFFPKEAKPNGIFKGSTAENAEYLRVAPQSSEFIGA
As to the kind of experiment: HTRF pEGFR/total EGFR assay in H1975 C797S cells. It is filed as cell-based. The note with it: H1975 C797S cells (CRISPR), compound 3 hours, ratio pEGFR/total EGFR. As for the experimental part: H1975 C797S cells (ATCC CRL-5908) were genetically engineered by CRISPR editing of EGFR C797S in house and validated by NGS. Cells were plated at 20,000 cells per well in 96 well plates and placed at 37° C. 5% CO2. Once adhered (after 24h) cells were treated with compounds dissolved in DMSO at a final concentration of 0.1% DMSO in media. Compounds were diluted in media then added to cells for 3 hours in duplicate. Compound and media were removed from the cells, then 50 ul of HTRF lysis buffer was added (lysis buffer was diluted from 4× stock to 1× in DI water, with 1% blocking agent also added). Cells were lysed on a plate shaker (2000 rpm) for 30 minutes at room temperature. pEGFR expression was monitored using the Cisbio Phospho-EGFR (Tyr1068) cellular kit (64EG1PEH). Total EGFR expression was monitored using the Cisbio Total EGFR cellular kit (64NG1PEH) as per manufacturer's instructions. Fluorescence emission was read at two different wavelengths (665 nm and 620 nm) on a PheraStar. Results were calculated as ratio of pEGFR/total EGFR and then percentage of 0 uM control.

For test [5], the target named is T3, Phospho-EGFR (Tyr1068) in A431 cells (Homo sapiens, UniProt P00533).
T3 construct: endogenous in cells; host or cells: A431
T3 sequence (P00533 25-1210): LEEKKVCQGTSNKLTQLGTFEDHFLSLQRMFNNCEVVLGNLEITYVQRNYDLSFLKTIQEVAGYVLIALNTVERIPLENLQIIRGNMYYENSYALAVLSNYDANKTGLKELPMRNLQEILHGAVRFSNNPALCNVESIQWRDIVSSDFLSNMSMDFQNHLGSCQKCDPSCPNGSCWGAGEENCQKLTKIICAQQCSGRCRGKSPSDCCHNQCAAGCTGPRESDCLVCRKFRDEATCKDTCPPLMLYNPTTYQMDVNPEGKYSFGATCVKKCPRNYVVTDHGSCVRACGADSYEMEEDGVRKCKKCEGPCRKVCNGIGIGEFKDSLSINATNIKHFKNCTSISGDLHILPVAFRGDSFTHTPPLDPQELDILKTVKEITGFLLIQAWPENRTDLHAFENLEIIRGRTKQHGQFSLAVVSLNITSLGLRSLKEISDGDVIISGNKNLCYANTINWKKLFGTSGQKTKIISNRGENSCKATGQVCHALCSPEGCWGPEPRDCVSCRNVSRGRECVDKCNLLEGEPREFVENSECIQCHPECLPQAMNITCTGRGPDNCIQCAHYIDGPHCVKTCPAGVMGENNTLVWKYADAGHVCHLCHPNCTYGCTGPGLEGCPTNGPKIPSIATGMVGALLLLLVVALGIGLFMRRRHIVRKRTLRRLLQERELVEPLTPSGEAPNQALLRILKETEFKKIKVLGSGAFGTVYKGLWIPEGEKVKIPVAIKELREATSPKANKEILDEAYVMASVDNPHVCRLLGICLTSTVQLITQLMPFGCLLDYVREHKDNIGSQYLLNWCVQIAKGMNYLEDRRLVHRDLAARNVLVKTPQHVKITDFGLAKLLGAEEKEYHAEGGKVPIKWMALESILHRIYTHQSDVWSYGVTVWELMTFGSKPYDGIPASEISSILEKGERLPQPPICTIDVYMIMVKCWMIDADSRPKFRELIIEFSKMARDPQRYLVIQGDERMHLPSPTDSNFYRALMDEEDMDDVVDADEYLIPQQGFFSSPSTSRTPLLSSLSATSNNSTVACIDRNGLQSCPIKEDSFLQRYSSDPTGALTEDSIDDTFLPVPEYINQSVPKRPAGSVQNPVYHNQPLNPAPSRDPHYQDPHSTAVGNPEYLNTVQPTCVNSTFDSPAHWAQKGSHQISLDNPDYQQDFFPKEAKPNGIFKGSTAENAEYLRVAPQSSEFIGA
Description: HTRF pEGFR/total EGFR assay in A431 cells (EGF stimulated). It is filed as cell-based. The note with it: compound 2.5 hours then 100 ng/ml EGF 30 mins, ratio pEGFR/total EGFR. How it is done: Cells were plated at 20,000 cells per well in 96 well plates and placed at 37° C. 5% CO2. Once adhered (after 24h) cells were treated with compounds dissolved in DMSO at a final concentration of 0.1% DMSO in media. Compounds were diluted in media then added to cells for 2.5 hours in duplicate, 100 ng/ml EGF (ThermoFisher, PHG0311 was is added to all compound treated cells as well as a control for 30 mins. Compound and media were removed from the cells, then 50ul of HTRF lysis bufferwas added (lysis bufferwas diluted from 4× stock to 1× in DI water, with 1% blocking agent also added). Cells were lysed on a plate shaker (2000 rpm) for 30 minutes at room temperature. pEGFR expression was monitored using the Cisbio Phospho-EGFR (Tyr1068) cellular kit (64EG1PEH). Total EGFR expression was monitored using the Cisbio Total EGFR cellular kit (64NG1PEH) as per manufacturer's instructions. Fluorescence emission was read at two different wavelengths (665 nm and 620 nm) on a PheraStar. Results were calculated as ratio of pEGFR/total EGFR and then percentage of OuM control.

Chain of CtermHisTag-mEGFR Wild type (P00533 25-1210): as above
Chain of CtermHisTag-mEGFR Triple Mutant - C797S, L858R, T790M (P00533 25-1210 T790M/C797S/L858R): as the sequence (P00533 25-1210 T790M/C797S/L858R) above

In the case of `C#Cc1cc(OC)nc2nc(Nc3cccc(CN(C)C(C)=O)c3)ncc12` [Example 7, N-{[3-({5-ethynyl-7-methoxypyrido[2,3-d]pyrimidin-2-yl}amino)pheny]methyl}-N-methylacetamide], the IC50 was 100 to 1000 nM in test [1]; over 10000 nM in test [2]; over 3000 nM in test [3]; over 3000 nM in test [4]; over 3000 nM in test [5].
With `C#Cc1cc(NC(=O)NC2CCCC2)nc2nc(Nc3cccc4c3CN(C)C4)ncc12` [Example 117, 3-Cyclopentyl-1-{5-ethynyl-2-[(2-methyl-1,3-dihydroisoindol-4-yl)amino]pyrido[2,3-d]pyrimidin-7-yl}urea], the IC50 in test [1] is 100 to 1000 nM; in test [2], 1000 to 10000 nM; in test [3], over 3000 nM; in test [4], over 3000 nM; in test [5] it was over 3000 nM.
Regarding `C#Cc1cc(NC(=O)NC2CCCC2)nc2nc(Nc3ccc(S(C)(=O)=O)cc3)ncc12` [Example 81, 3-Cyclopentyl-1-{5-ethynyl-2-[(4-methanesulfonylphenyl)amino]pyrido[2,3-d]pyrimidin-7-yl}urea], the IC50 in test [1] is under 20 nM; in test [2], under 1000 nM; in test [3], 500 to 1000 nM; in test [4], 1000 to 3000 nM; in test [5], 500 to 1000 nM.
As for `C#Cc1cc(N2C(=O)OCC2C2CCCC2)nc2nc(Nc3ccc(N4CCN(C)CC4)cc3)ncc12` (stereo not drawn) [Example 111, 4-Cyclopentyl-3-(5-ethynyl-2-{[4-(4-methylpiperazin-1-yl)phenyl]amino}pyrido[2,3-d]pyrimidin-7-yl)-1,3-oxazolidin-2-one], the half-maximal inhibitory concentration (IC50) was under 20 nM in test [1]; 1000 to 10000 nM in test [2]; 500 to 1000 nM in test [3]; 500 to 1000 nM in test [4]; over 3000 nM in test [5].
As for `C#Cc1cc(N2C(=O)N(C)CC23CCCC3)nc2nc(Nc3ccc(N4CCOCC4)cc3)ncc12` [Example 103, 1-(5-Ethynyl-2-{[4-(morpholin-4-yl)phenyl]amino}pyrido[2,3-d]pyrimidin-7-yl)-3-methyl-1,3-diazaspiro[4.4]nonan-2-one], the IC50 is 20 to 100 nM in test [1]; under 1000 nM in test [2]; under 500 nM in test [3]; under 500 nM in test [4]; 1000 to 3000 nM in test [5].
For the compound `C#Cc1cc(NC(=O)N(C)C)nc2nc(Nc3ccc(N4CCN(C)CC4)cc3)ncc12` [Example 37, 1-(5-ethynyl-2-{[4-(4-methylpiperazin-1-yl)phenyl]amino}pyrido[2,3-d]pyrimidin-7-yl)-3,3-dimethylurea], the IC50 in test [1] is 100 to 1000 nM; in test [2], over 10000 nM; in test [3], over 3000 nM; in test [4] it was over 3000 nM; in test [5] it was over 3000 nM.
As for `C#Cc1cc(N2C(=O)NCC2C2CCCC2)nc2nc(Nc3ccc(N4CCN(C)CC4)cc3)ncc12` (stereo not drawn) [Example 124, 5-Cyclopentyl-1-(5-ethynyl-2-{[4-(4-methylpiperazin-1-yl)phenyl]amino}pyrido[2,3-d]pyrimidin-7-yl)imidazolidin-2-one], the 50% inhibitory concentration (IC50) in test [1] is 20 to 100 nM; in test [2] it was under 1000 nM; in test [3] it was 500 to 1000 nM; in test [4] it was under 500 nM; in test [5], over 3000 nM.
The corresponding values for `C#Cc1cc(NC(=O)OC2CCCCC2)nc2nc(Nc3ccc(N4CCN(C)CC4)cc3)ncc12` [Example 66, cyclohexyl (5-ethynyl-2-((4-(4-methylpiperazin-1-yl)phenyl)amino)pyrido[2,3-d]pyrimidin-7-yl)carbamate] are 100 to 1000 nM, over 10000 nM, over 3000 nM, over 3000 nM and over 3000 nM.
On to `C#Cc1cc(NS(C)(=O)=O)nc2c1=CNC(Nc1ccc(N(C)CCN(C)C)cc1)N=2` (stereo not drawn) [Example 33], for which the IC50 in test [1] was 20 to 100 nM; in test [2], over 10000 nM; in test [3], over 3000 nM; in test [4] it was over 3000 nM; in test [5], over 3000 nM.
In the case of `C#Cc1cc(NC(=O)NC2CCCC2)nc2nc(Nc3ccc(N4CCN(C)CC4)c(NCC4CCC4)c3)ncc12` [Example 63], the half-inhibitory concentration (IC50) in test [1] was 20 to 100 nM; in test [2] it was under 1000 nM; in test [3], under 500 nM; in test [4] it was 1000 to 3000 nM; in test [5], under 500 nM.
In the case of `C#Cc1cc(NC(=O)NC2CCCC2)nc2nc(Nc3cccc(N(C)[C@H]4C[C@H](CS(C)(=O)=O)C4)c3)ncc12` [Example 122], the 50% inhibitory concentration (IC50) was under 20 nM in test [1]; under 1000 nM in test [2]; under 500 nM in test [3]; under 500 nM in test [4]; 1000 to 3000 nM in test [5].
In the case of `C#Cc1cc(N2C(=O)OCC2C(C)C)nc2nc(Nc3ccc(N4CCN(C)CC4)cc3)ncc12` (stereo not drawn) [Example 68, 3-(5-ethynyl-2-{[4-(4-methylpiperazin-1-yl)phenyl]amino}pyrido[2,3-d]pyrimidin-7-yl)-4-isopropyl-1.3-oxazolidin-2-one], the IC50 was under 20 nM in test [1]; 1000 to 10000 nM in test [2]; under 500 nM in test [3]; 1000 to 3000 nM in test [4]; over 3000 nM in test [5].
The corresponding values for `C#Cc1cc(NC(=O)NC2CCCC2)nc2nc(Nc3ccc(N(C)C(=O)CN(C)C)cc3)ncc12` [Example 83] are under 20 nM, under 1000 nM, under 500 nM, under 500 nM and over 3000 nM.
Take `C#Cc1cc(NC(=O)NC2(C)COC2)nc2nc(Nc3ccc(N4CCN(C)CC4)cc3)ncc12` [Example 61, 1-(5-ethynyl-2-((4-(4-methylpiperazin-1-yl)phenyl)amino)pyrido[2,3-d]pyrimidin-7-yl)-3-(3-methyloxetan-3-yl)urea]: the IC50 in test [1] is under 20 nM; in test [2] it was under 1000 nM; in test [3], under 500 nM; in test [4], under 500 nM; in test [5], over 3000 nM.
Take `C#Cc1cc(N2C(=O)NCC23CCCC3)nc2nc(Nc3ccc(N4CCOCC4)cc3)ncc12` [Example 91, 1-(5-Ethynyl-2-{[4-(morpholin-4-yl)phenyl]amino}pyrido[2,3-d]pyrimidin-7-yl)-1,3-diazaspiro[4.4]nonan-2-one]: the half-maximal inhibitory concentration (IC50) was under 20 nM in test [1]; under 1000 nM in test [2]; 500 to 1000 nM in test [3]; 1000 to 3000 nM in test [4]; 1000 to 3000 nM in test [5].
